Where two headings read alike, the source gives them in different places.
Assays:
Type in all cases: in vivo
[1] = system: Eggs of Tetranychus Cinnabarinus; test: Activity assay of eggs of Tetranychus cinnabarinus (spray method, ovicidal); conditions: Tetranychus cinnabarinus; for pest or weed control at 2 µg/mL: concentration 2 mg/L
Description: According to the solubility of the test compound, the crude drug was dissolved in N N-dimethylformamide, and then prepared into a test solution of the desired concentration with 1‰ Tween 80 aqueous solution. The content of N. N-dimethylformamide in the solution should not exceed 10%.
Spray method. The broad bean leaves with petioles were cut and inserted into a bottle with water. A certain number of female mites were placed, 24h later, adult mites were removed, and spray treatment was performed in 24 h. The experiment was repeated three times, and a blank control was set, and placed to an observation room (26±2° C., humidity 70%˜80%, 16h light per day) for culture. When the blank control group was incubated, the results were investigated. The non-incubated ones were used as death for investigation.

[2] = system: adult Tetranychus cinnabarinus; test: Activity assay of adult Tetranychus cinnabarinus (whole-plant spray on bean seedlings); conditions: 48 h; for pest or weed control at 1.25 µg/mL: concentration 1.25 mg/L
Description: According to the solubility of the test compound, the crude drug was dissolved in N, N-dimethlfornamide, and then prepared into a test solution of the desired concentration with 1‰ Tween 80 aqueous solution. The content of N,N-dimethylformamide in the solution should not exceed 10%.
Two euphylla bean seedlings were taken, after inoculated with adult Tetranychus cinnabarinus and the base number was investigated, whole plants were sprayed with a hand-held sprayer. The experiment was repeated three times for each treatment, after treatment, placed in a standard observation room after treatment, to investigate the survival number of mites in 48 hand calculate the death rate.

[3] = system: Tetranychus cinnabarinus Nymphs; test: Activity assay of Tetranychus cinnabarinus nymphs (spray on broad bean leaves); conditions: 48 h; for pest or weed control at 2 µg/mL: concentration 2 mg/L; for pest or weed control at 0.5 µg/mL: concentration 0.5 mg/L
Description: According to the solubility of the test compound, the crude drug was dissolved in N, N-dimethylformamide, and then prepared into a test solution of the desired concentration with 1‰ Tween 80 aqueous solution. The content of N,N-dimethylformamide in the solution should not exceed 10%.
The broad bean leaves with petioles were cut and inserted into a small bottle with water. A certain number of brightly colored, active female adult mites were placed, 24h later, adult mites were removed, and leaves with insufficient eggs were removed. When eggs were hatched and grew into nymphs, spray treatment was performed. The experiment was repeated three times, and a blank control was set, and placed to an observation room (26±2° C., humidity 70%˜80%, 16h light per day) for culture. 48 h later, the results were investigated. The nymphs were gently touched during investigation, and if no response, they were regarded as deaths.

[4] = spray, read-out: ovicidal activity
[5] = concentration 5 mg/L, spray, non-incubated eggs counted as dead, read-out: ovicidal activity
[6] = eggs, parallel determination, read-out: Death rate (%)
[7] = adult mites, parallel determination, read-out: Death rate (%)
[8] = read-out: adult mite-killing activity
[9] = concentration 2.5 mg/L, read-out: adult mite-killing activity
[10] = read-out: nymph-killing activity
[11] = concentration 2.5 mg/L, read-out: nymph-killing activity
[12] = nymphs, parallel determination, read-out: Death rate (%)

| SMILES | pest or weed control at 5 µg/mL [1, 5] | pest or weed control at 2.5 µg/mL [2, 9] | pest or weed control at 2.5 µg/mL [3, 11] | also measured |
| --- | --- | --- | --- | --- |
| CCn1nc(C)c(Cl)c1/C(OC(C)OC(=O)OC)=C(\C#N)c1ccc(C(C)(C)C)cc1 (centres unmarked) [Compound 771] | ≥ 90% | ≥ 90% | ≥ 95% | pest or weed control at 2 µg/mL [1, 4]: ≥ 90%; pest or weed control at 2 µg/mL [1, 6]: 100%; pest or weed control at 1.25 µg/mL [2, 7]: 100%; pest or weed control at 1.25 µg/mL [2, 8]: ≥ 90%; pest or weed control at 2 µg/mL [3, 10]: ≥ 90%; pest or weed control at 0.5 µg/mL [3, 12]: 95% |
| CC(=O)OCO/C(=C(/C#N)c1ccc(C(C)(C)C)cc1)c1cc(C)nn1C [Compound 1] | ≥ 90% | ≥ 90% | ≥ 95% | – |
| C=CC(=O)OC(C)O/C(=C(/C#N)c1ccc(C(C)(C)C)cc1)c1cc(C)nn1CC (centres unmarked) [Compound 267] | ≥ 90% | ≥ 90% | ≥ 95% | – |
| CCCC(=O)OCO/C(=C(/C#N)c1ccc(C(C)(C)C)cc1)c1c(C)c(C)nn1C [Compound 153] | ≥ 90% | ≥ 90% | ≥ 95% | – |
| Cc1cc(/C(OCOC(=O)OC(C)C)=C(\C#N)c2ccc(C(C)(C)C)cc2)n(C)n1 [Compound 454] | ≥ 90% | ≥ 90% | ≥ 95% | – |
| CCn1nc(C)cc1/C(OCOC(=O)OCC(=O)OC)=C(\C#N)c1ccc(C(C)(C)C)cc1 [Compound 573] | ≥ 90% | ≥ 90% | ≥ 95% | – |
| Cc1nn(C)c(/C(OCOC(=O)c2ccccc2)=C(\C#N)c2ccc(C(C)(C)C)cc2)c1Cl [Compound 89] | ≥ 90% | ≥ 90% | ≥ 95% | – |
| C=CCOC(=O)OCO/C(=C(/C#N)c1ccc(C(C)(C)C)cc1)c1cc(C)nn1C [Compound 474] | ≥ 90% | ≥ 90% | ≥ 95% | – |
| Cc1nn(C)c(/C(OCOC(=O)CC(C)C)=C(\C#N)c2ccc(C(C)(C)C)cc2)c1Cl [Compound 82] | ≥ 90% | ≥ 90% | ≥ 95% | – |
| CCCCCOC(=O)OC(C)O/C(=C(/C#N)c1ccc(C(C)(C)C)cc1)c1cc(C)nn1C (centres unmarked) [Compound 492] | ≥ 90% | ≥ 90% | ≥ 95% | – |
| Cc1nn(C)c(/C(OCOC(=O)C(C)C)=C(\C#N)c2ccc(C(C)(C)C)cc2)c1C [Compound 154] | ≥ 90% | ≥ 90% | ≥ 95% | – |
| CSCC(=O)OCO/C(=C(/C#N)c1ccc(C(C)(C)C)cc1)c1cc(C)nn1C [Compound 10] | ≥ 90% | ≥ 90% | ≥ 95% | – |
| Cc1nn(C)c(/C(OCOC(=O)C(C)C)=C(\C#N)c2ccc(C(C)(C)C)cc2)c1Cl [Compound 79] | ≥ 90% | ≥ 90% | ≥ 95% | – |
| Cc1cc(/C(OC(C)OC(=O)CC(C)C)=C(\C#N)c2ccc(C(C)(C)C)cc2)n(C)n1 (centres unmarked) [Compound 32] | ≥ 90% | ≥ 90% | ≥ 95% | – |
| C#CCOC(=O)OCO/C(=C(/C#N)c1ccc(C(C)(C)C)cc1)c1cc(C)nn1CC [Compound 572] | ≥ 90% | ≥ 90% | ≥ 95% | – |
| CC(=O)OCOC(=C(C#N)c1ccc(C(C)(C)C)cc1)c1ccccc1C(F)(F)F [Compound 8-2, reference compound] | < 30% | < 80% | < 80% | pest or weed control at 2 µg/mL [1, 4]: 0%; pest or weed control at 2 µg/mL [1, 6]: 0%; pest or weed control at 1.25 µg/mL [2, 7]: 30%; pest or weed control at 1.25 µg/mL [2, 8]: < 50%; pest or weed control at 0.5 µg/mL [3, 10]: < 30%; pest or weed control at 0.5 µg/mL [3, 12]: 0% |
| CCn1nc(C)cc1/C(OCOC(=O)CF)=C(\C#N)c1ccc(C(C)(C)C)cc1 [Compound 237] | – | – | – | pest or weed control at 5 µg/mL ([1]; read-out: ovicidal activity): ≥ 90%; pest or weed control at 2.5 µg/mL [2, 8]: ≥ 90%; pest or weed control at 2.5 µg/mL [3, 10]: ≥ 95% |
| CCC(C)(C)C(=O)OCO/C(=C(/C#N)c1ccc(C(C)(C)C)cc1)c1cc(C)nn1C [Compound 16] | ≥ 90% | ≥ 90% | ≥ 95% | – |
| Cc1cc(/C(OC(C)OC(=O)OC(C)C)=C(\C#N)c2ccc(C(C)(C)C)cc2)n(C)n1 (centres unmarked) [Compound 486] | ≥ 90% | ≥ 90% | ≥ 95% | – |
| C=CC(=O)OC(C)O/C(=C(/C#N)c1ccc(C(C)(C)C)cc1)c1c(Cl)c(C)nn1CC (centres unmarked) [Compound 342] | ≥ 90% | ≥ 90% | ≥ 95% | – |
| C#CCOC(=O)OC(C)O/C(=C(/C#N)c1ccc(C(C)(C)C)cc1)c1cc(C)nn1CC (centres unmarked) [Compound 604] | ≥ 90% | ≥ 90% | ≥ 95% | – |
| Cc1cc(/C(OCOC(=O)OCC(C)C)=C(\C#N)c2ccc(C(C)(C)C)cc2)n(C)n1 [Compound 457] | ≥ 90% | ≥ 90% | ≥ 95% | – |
| CCOC(=O)OCO/C(=C(/C#N)c1ccc(C(C)(C)C)cc1)c1c(C)c(C)nn1CC [Compound 932] | ≥ 90% | ≥ 90% | ≥ 95% | pest or weed control at 2 µg/mL [1, 4]: ≥ 90%; pest or weed control at 2 µg/mL [1, 6]: 97%; pest or weed control at 1.25 µg/mL [2, 7]: 90%; pest or weed control at 1.25 µg/mL [2, 8]: ≥ 90%; pest or weed control at 2 µg/mL [3, 10]: ≥ 90% |
| CCn1nc(C)c(Cl)c1/C(OCOC(=O)C1CCCCC1)=C(\C#N)c1ccc(C(C)(C)C)cc1 [Compound 311] | ≥ 90% | ≥ 90% | ≥ 95% | – |
| Cc1nn(C)c(/C(OC(C)OC(=O)C2CCCCC2)=C(\C#N)c2ccc(C(C)(C)C)cc2)c1Cl (centres unmarked) [Compound 111] | ≥ 90% | ≥ 90% | ≥ 95% | – |
| CCSC(=O)OC(C)O/C(=C(/C#N)c1ccc(C(C)(C)C)cc1)c1cc(C)nn1CC (centres unmarked) [Compound 608] | ≥ 90% | ≥ 90% | ≥ 95% | – |
| CCC(C)(C)C(=O)OC(C)O/C(=C(/C#N)c1ccc(C(C)(C)C)cc1)c1cc(C)nn1C (centres unmarked) [Compound 41] | ≥ 90% | ≥ 90% | ≥ 95% | – |
| COC(=O)COC(=O)OC(C)O/C(=C(/C#N)c1ccc(C(C)(C)C)cc1)c1cc(C)nn1C (centres unmarked) [Compound 509] | ≥ 90% | ≥ 90% | ≥ 95% | – |
